Patent US7741348B2, “Bisheterocycle tandem compounds useful as antiviral agents, the uses thereof and the compositions comprising such compounds” (Shanghai Institute of Materia Medica, Chinese Academy of …, priority 2005, dated 2010)
In brackets after ≈: the same amount, converted by molar mass. Where two headings read alike, the source gives them in different places.

Assays:
Format in all cases: cell-based
hepatitis B virus (HBV) = experiment: HBV-DNA replication in HepG2.2.15 culture supernatant (fluorescent quantification PCR); conditions: for IC50: Hepatitis B virus; for DNA replication IC89: ICX: concentration with 89% inhibition of HBV-DNA replication
Text: (§1) Hepatitis B virus (HBV) transgenic human hepatoma carcinoma cell, HepG2.2.15 cell line, can secrete hepatitis B virus particles (containing antigen and DNA) into supernatant when being cultured.
(§2) Under action of antiviral drugs, the contents of HBsAg, HBeAg and viral DNA secreted from cells into the supernatant were detected and are compared with the contents of control groups without drugs, so that the antiviral activity of the compounds of the present invention can be measured as well as the cytotoxic effect of compounds of the present invention. The value concentration of the compounds of the present invention which caused 50% of cells dead and was measured with MTT method was CC50; and the value concentration of the compounds of the present invention which inhibited the secretion of HBsAg and HBeAg detected by ELISA method and inhibited 50% of viral DNA replication detected by fluorescent quantification PCR method was IC50.
(§3) HepG2.2.15 cells were inoculated on a 96-well plate, and the compounds of the present invention were added next day. The medium and the compound solutions of the same concentration were renewed periodically. The culture supernatants were collected on the eighth day to be detected. MTT was added to the cells on the 96-well plate, and MTT dissolving liquid was added after 4 hours to be reacted overnight. OD570 was measured next day on microplate reader. And the cytotoxicity of the compounds of the present invention to the HepG2.2.15 cells, the effect of the compounds of the present invention on the growth of the cells, and the concentration of the compound of the present invention (CC50) causing 50% of the cells dead were estimated according to the OD values.
A suitable amount of culture supernatant was added into a same volume of virus extract solution, and was boiled after mixed uniformly, then centrifuged at 10000 rpm for 5 min under room temperature. A suitable amount of supernatant was collected for PCR amplification. Five HBV-DNA standard samples were used to set a standard curve. According to the obtained viral DNA replication value, the inhibition rates of HBV-DNA replication of the compound of the present invention at different concentrations were calculated, and then the half inhibition rates of the compounds were calculated to obtain IC50. For the samples that can not be calculated for IC50 value, they can be represented by ICX and given the corresponding concentration values.

[1] = Cytotoxicity to HepG2.2.15 cells (MTT method); conditions: human, HepG2.2.15 cells (HBV-transgenic human hepatoma cells), 50% death concentration, eighth day
Text: as §1, §2, §3

influenza A virus = experiment: Anti influenza A virus activity, cytopathic effect (CPE) in MDCK cells
Text: (§4) 4. Screening of the samples for the anti-influenza virus A and B activity: MDCK (canine kidney) cells were used as the virus host to test the inhibition effect of the compounds of the present invention on the cytopathic effect (CPE) of the cells caused by the virus.

[2] = tested on: MDCK (canine kidney) cells; experiment: 50% toxicity concentration in the anti-influenza screen (MDCK cells); conditions: 50% toxity concentration, Table 3-2 (influenza screen, MDCK cells)
Text: as §4

[3] = HepG2.2.15 supernatant, eighth day, fluorescent quantification PCR, read-out: DNA replication IC50

Compound	IC50 (hepatitis B virus (HBV); [3]) [µM]	CC50 [1] [µM]	other results
CCOC(=O)c1nc(-c2cccs2)[nH]c1C1CCCCC1 [Compound C304]	4.5	> 100	
c1ccc(-c2cnc(-c3cccs3)[nH]2)cc1 [Compound C226]	2.3	53.2	
COC(=O)c1nc(-c2csc([C@@H](NC(=O)c3ccccc3OC)C(C)C)n2)oc1C [Wang429.49]			IC50 (influenza A virus): 47.7 mg/L (≈ 111 µM); TC50 [2]: 333.33 mg/L (≈ 776 µM)
C=CCCC(=O)N[C@H](c1nc(-c2nc(C(=O)OC)c(C)o2)cs1)C(C)C [Wang 377.46-2]			IC50 (influenza A virus): 259 mg/L (≈ 685 µM); TC50 [2]: 577.35 mg/L (≈ 1530 µM)
C=CCC(=O)N[C@H](c1nc(-c2nc(C(=O)OC)c(C)o2)cs1)C(C)C [Wang 363.43-2]			IC50 (influenza A virus): 0.42 mg/L (≈ 1.16 µM); TC50 [2]: 500 mg/L (≈ 1380 µM)
NC(=O)c1ncn([C@@H]2O[C@H](CO)[C@@H](O)[C@H]2O)n1 [Ribavirin, reference compound]			IC50 (influenza A virus): 3.73 mg/L (≈ 15.3 µM)
CCCc1ccc(-c2nc(C(=O)OCC)c(CC(C)C)o2)s1 [Compound C321-3]		80	DNA replication IC27 (hepatitis B virus (HBV); ICX: concentration with 27% inhibition of HBV-DNA replication, IC50 not calculable): IC27 = 1.23 uM
CCOC(=O)c1nc(-c2nccs2)[nH]c1C1CCCC1 [Compound C291]	5.5	> 100	
CCOC(=O)c1nc(-c2cccs2)oc1C1CCCCC1 [Compound C305-1]	2.6	> 100	
CC(C)Cc1cnc(-c2nccs2)o1 [Compound C208]	35.8	> 100	
CCOC(=O)c1nc(-c2nc3cc(OC)ccc3s2)sc1CC(C)C [Compound C376]	23	127	
C=CCC(=O)N[C@H](c1nc(-c2nc(C(=O)N[C@@H](C)c3nc(C(=O)OC)co3)c(C)o2)cs1)C(C)C [Wang 501.56-2]			IC50 (influenza A virus): 68.7 mg/L (≈ 137 µM); TC50 [2]: 577.35 mg/L (≈ 1150 µM)
CCOc1cnc(-c2oc(-c3cccs3)nc2C(=O)c2ccccc2)o1 [Compound C352]	8.3	> 33.3	
CCOC(=O)c1nc(-c2cccs2)[nH]c1/C=C/c1ccccc1 [Compound C324]		61	
CCOC(=O)c1nc(-c2cc3ccccc3s2)oc1CC(C)C [Compound C329]		> 100	DNA replication IC41.8 (hepatitis B virus (HBV); ICX: concentration with 41.8% inhibition of HBV-DNA replication, IC50 not calculable): IC41.8 = 4 uM
CCOC(=O)c1nc(-c2ccc(CC)s2)oc1CC(C)C [Compound C307]	22.5	80	
CC(C)Cc1sc(-c2nccs2)nc1C(=O)NCc1ccccc1 [Compound C357]		80	DNA replication IC89 (hepatitis B virus (HBV); IC50 not calculable): IC89 = 33 uM
CCOC(=O)c1nc(-c2ncc(C)s2)sc1CC(C)C [Compound C310]	0.14	> 100	
COC(=O)c1nc(-c2csc([C@@H](NC(=O)CC3=CCCC3)C(C)C)n2)oc1C [Wang 403.50]			IC50 (influenza A virus): 64.2 mg/L (≈ 159 µM); TC50 [2]: 333.33 mg/L (≈ 826 µM)
CCOC(=O)c1nc(-c2cccs2)[nH]c1C1CC1 [Compound C262]	4.3	34.4	
CCOC(=O)c1nc(-c2cccs2)sc1C1CCCCC1 [Compound C321-2]		28.2	IC50 (hepatitis B virus (HBV); HepG2.2.15, read-out: DNA replication IC50): 1.67 µM
CCCCc1sc(-c2nccs2)nc1C(=O)OCC [Compound C296-2]		> 100	DNA replication IC12 (hepatitis B virus (HBV); ICX: concentration with 12% inhibition of HBV-DNA replication, IC50 not calculable): IC12 = 0.41 uM
CCOC(=O)c1nc(-c2nccs2)[nH]c1C1CCCCC1 [Compound C305-2]	4.1	> 100	
CCOC(=O)c1nc(-c2cc3ccccc3[nH]2)[nH]c1CC(C)C [Compound C311-2]	0.07	3.5	
CCC(=O)N[C@H](c1nc(-c2nc(C(=O)N[C@@H](C)c3nc(C(=O)OC)co3)c(C)o2)cs1)C(C)C [Wang489.55]			IC50 (influenza A virus): 160 mg/L (≈ 327 µM); TC50 [2]: 577.35 mg/L (≈ 1180 µM)
COC(=O)c1nc(-c2csc([C@@H](NC(=O)CCC=C(C)C)C(C)C)n2)oc1C [Yao405.51]			IC50 (influenza A virus): 37 mg/L (≈ 91.3 µM); TC50 [2]: 577.35 mg/L (≈ 1420 µM)
CCOC(=O)c1nc(-c2ccc(C)s2)sc1CC(C)C [Compound C309]		> 100	DNA replication IC14.2 (hepatitis B virus (HBV); ICX: concentration with 14.2% inhibition of HBV-DNA replication, IC50 not calculable): IC14.2 = 0.39 uM
CC(C)Cc1sc(-c2nccs2)nc1C(N)=O [Compound C267]			DNA replication IC89 (hepatitis B virus (HBV); IC50 not calculable): IC89 = 33 uM
